The results in this text go back to US20040086900A1, “Cloning of mammalian genes in microbial organisms and methods for pharmacological screening” (priority 1990, published 2004).

SMILES strings stand for the structures. “Also recorded” adds a separate entry of the source.

One test has as its target T1, yeast PDE2 (Saccharomyces cerevisiae, UniProt P06776).
T1 construct: made in house; host or cells: S. cerevisiae strain 10 DAB (pde1- pde2-), cell free extract
Description: Phosphodiesterase activity assay, cell free extract of 10 DAB yeast expressing yeast PDE2. It is filed as biochemical, S. cerevisiae. The procedure:
(§1) Yeast cells were grown at 30° C. for 36 hours in one liter cultures of synthetic media (SC-leucine). Cells were harvested and washed with buffer C ([…], 0.1 mM MgCl2, 0.1 mM EGTA, 1 mM β-mercaptoethanol), were resuspended in 30 ml buffer C with 50 μl 1M PMSF, and were disrupted with a French press. The extracts were centrifuged at 1,600 g for 10 min and the supernatants were spun at 18,000 g for 90 min (4° C.). The supernatant was assayed for phosphodiesterase activity (Sass, P., et al., Proc. Natl. Acad. Sci. USA 83:9303 (1986); Nikawa, J., et al., Mol. Cell. Biol. 7:3629 (1987)). All the reactions contained Tris-HCl (pH7.5) (100 mM), cell extract (50 μg protein/ml), 5′-nucleotidase (Sigma, 20 ng/ml) and 10 MM Mg^2+ (unless otherwise stated) and the indicated cyclic nucleotide concentrations. Assays for the cGMP hydrolysis used 1.5 μM cGMP. […] Reactions were incubated for 10 min at 30° C. and stopped with 5× stop solution (250 mM EDTA, 25 mM AMP, 100 mMcAMP).
This example illustrates the use of the genes and cells described in Example 1 to identify chemical compounds which inhibit the activity of a known enzyme, the rat DPD phosphodiesterase. To test the efficiency of known inhibitory compounds, cell free extracts were made as described in Phosphodiesterase Assays. Yeast cells deficient in endogenous phosphodiesterase (10 DAB), and expressing the rat DPD or yeast PDE2 genes from the described expression vector, were used. One liter cultures were harvested, washed in buffer C (20 mM MES/0.1 mM MgCl2/0.1 mM EGTA/1 mM 2-mercaptoethanol), resuspended in buffer C containing 1.5 mM phenylmethylsulfonyl fluoride, and disrupted in a French press at 4° C. Cell extracts were clarified at 100 g for 10 minutes and at 18000 g for 90 minutes. […] About 10^4 cpm were obtained for 10 minutes reactions and backgrounds (phosphodiesterase deficient-yeast or no extract) were about 300 cpm. The cytosolic fraction was assayed in the presence or absence of inhibitory compounds. […] The percent inhibition represents the decrease in phosphodiesterase activity relative to measurements made in the absence of inhibitors.

Test [1] addresses T2, rat DPD phosphodiesterase (Rattus norvegicus, UniProt P14646).
T2 construct: A large open reading frame of 562 codons was found; The first ATG appears at codon 46; made in house; host or cells: S. cerevisiae strain 10 DAB (pde1- pde2-) transformed with pADPD, cell free extract
T2 sequence (P14646 220-736): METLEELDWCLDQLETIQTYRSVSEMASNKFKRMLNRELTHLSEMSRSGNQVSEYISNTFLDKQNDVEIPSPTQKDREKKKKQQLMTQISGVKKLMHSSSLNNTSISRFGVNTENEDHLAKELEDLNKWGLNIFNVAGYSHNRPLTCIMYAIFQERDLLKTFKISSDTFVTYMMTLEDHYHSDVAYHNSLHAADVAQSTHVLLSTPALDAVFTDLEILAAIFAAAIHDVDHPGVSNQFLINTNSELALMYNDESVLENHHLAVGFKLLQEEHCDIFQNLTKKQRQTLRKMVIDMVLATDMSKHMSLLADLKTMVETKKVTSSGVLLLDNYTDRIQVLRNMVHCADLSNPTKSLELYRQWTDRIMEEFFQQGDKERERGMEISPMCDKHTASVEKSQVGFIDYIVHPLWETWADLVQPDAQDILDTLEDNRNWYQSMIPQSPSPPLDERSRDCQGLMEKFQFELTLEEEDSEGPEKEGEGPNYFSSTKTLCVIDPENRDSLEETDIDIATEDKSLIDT
Briefly: Phosphodiesterase activity assay, cell free extract of 10 DAB yeast expressing rat DPD. The conditions noted are these: for Inhibition (%): DPD-1 extract. It is filed as biochemical. How it is done: In order to analyse the biochemical properties of the DPD gene product, crude cell extracts were prepared from one liter cultures of 10 DAB which had been transformed with either pADNS or pADPD.
as §1
This example illustrates the use of the genes and cells described in Example 1 to identify chemical compounds which inhibit the activity of a known enzyme, the rat DPD phosphodiesterase. To test the efficiency of known inhibitory compounds, cell free extracts were made as described in Phosphodiesterase Assays. Yeast cells deficient in endogenous phosphodiesterase (10 DAB), and expressing the rat DPD or yeast PDE2 genes from the described expression vector, were used. One liter cultures were harvested, washed in buffer C (20 mM MES/0.1 mM MgCl2/0.1 mM EGTA/1 mM 2-mercaptoethanol), resuspended in buffer C containing 1.5 mM phenylmethylsulfonyl fluoride, and disrupted in a French press at 4° C. Cell extracts were clarified at 100 g for 10 minutes and at 18000 g for 90 minutes. […] The cytosolic fraction was assayed in the presence or absence of inhibitory compounds. […] The percent inhibition represents the decrease in phosphodiesterase activity relative to measurements made in the absence of inhibitors.

Test [2] deals with 10 DAB cells expressing DPD. Briefly: Heat shock survival of 10 DAB yeast cells expressing DPD. It counts as cell-based, S. cerevisiae. The conditions noted are these: 100 μM, 40 minutes pretreatment, heat shock 50° C. 30 minutes. From the text: This example illustrates the use of the genes and methods described to identify chemical compounds which inhibit the function of the encoded mammalian proteins expressed in yeast, even when the function of that protein is not known. 10DAB cells, which are phosphodiesterase deficient, are sensitive to heat shock. As already discussed, when these cells express DPD, they become resistant to heat shock. […] 10 DAB cells expressing DPD were maintained in rich medium (YPD) for three days at stationary phase. […] Control cultures were not treated with any inhibitor. These cultures were then heat shocked in glass tubes at 50° C. for 30 minutes. One microliter of each culture was plated.

T1 sequence (P06776 whole entry): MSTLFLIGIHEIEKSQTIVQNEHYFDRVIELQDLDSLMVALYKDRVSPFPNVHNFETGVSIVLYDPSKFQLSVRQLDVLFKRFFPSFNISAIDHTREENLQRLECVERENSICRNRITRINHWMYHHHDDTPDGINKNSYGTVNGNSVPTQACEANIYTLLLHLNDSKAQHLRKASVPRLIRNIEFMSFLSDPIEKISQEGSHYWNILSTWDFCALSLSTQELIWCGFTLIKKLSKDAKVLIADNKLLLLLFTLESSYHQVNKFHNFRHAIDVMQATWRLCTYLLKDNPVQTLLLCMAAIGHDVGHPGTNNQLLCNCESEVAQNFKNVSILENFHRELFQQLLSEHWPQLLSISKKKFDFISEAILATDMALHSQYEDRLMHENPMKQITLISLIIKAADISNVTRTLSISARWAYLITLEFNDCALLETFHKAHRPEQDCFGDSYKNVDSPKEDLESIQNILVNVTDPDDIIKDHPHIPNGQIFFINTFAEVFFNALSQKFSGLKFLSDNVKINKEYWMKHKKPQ

Turning to `CC(C)Cn1c(=O)n(C)c(=O)c2[nH]cnc21` [IBMX], the “Inhibition (%)” value on yeast PDE2 (agent 250 μM) is 0.0%; in test [1] (agent 250 μM), 87. %.
As for `CCCCOc1cc(CC2CNC(=O)N2)ccc1OC` (stereo not drawn) [R020 1724], the “Inhibition (%)” value amounted to 3.0% on yeast PDE2 (agent 100 μM); 35. % in test [1] (agent 0.1 μM); 52. % in test [1] (agent 1.0 μM); 79. % in test [1] (agent 10.0 μM); 92. % in test [1] (agent 100.0 μM). Moreover, the “Inhibition of enzymatic activity of the rat DPD gene product (in words)” value in test [1] (cell extract, summary of Example 3) is listed as “most effective inhibitors of DPD activity; also recorded: inhibited”.
Turning to `COc1ccc(C2CNC(=O)C2)cc1OC1CCCC1` (stereo not drawn) [Rolipram], the inhibition – broadly, the share of the control response that was lost under treatment – at 100 µM at yeast PDE2 (agent 100 μM) amounted to 0%. In addition, in test [2], the “Heat shock sensitivity after treatment (inhibition of DPD function)” value was “much more sensitive to heat shock; also recorded: suppression of heat shock resistance”.
In turn, `Cn1c(=O)c2[nH]cnc2n(C)c1=O` [Theophylline] yielded an inhibition at 250 µM on yeast PDE2 (agent 250 μM) of 0%.
Regarding `Nc1nc2c(ncn2[C@@H]2O[C@@H]3COP(=O)(O)O[C@H]3[C@H]2O)c(=O)[nH]1` [cGMP], the “Inhibition of cAMP phosphodiesterase activity by cGMP” value in test [1] (5 μM cAMP, cGMP 100 fold over substrate (up to 500 μM)) is “unable to inhibit”.
